Structures are written as SMILES. “And” between values parts separate entries of the source, which are not always exact repeats. Equal entries are not always repeated.

For the assay, the target named is T1, LFA-1 (Homo sapiens, UniProt P20701).
T1 construct: endogenous in cells; host or cells: Jurkat cells
T1 sequence (P20701 26-1170): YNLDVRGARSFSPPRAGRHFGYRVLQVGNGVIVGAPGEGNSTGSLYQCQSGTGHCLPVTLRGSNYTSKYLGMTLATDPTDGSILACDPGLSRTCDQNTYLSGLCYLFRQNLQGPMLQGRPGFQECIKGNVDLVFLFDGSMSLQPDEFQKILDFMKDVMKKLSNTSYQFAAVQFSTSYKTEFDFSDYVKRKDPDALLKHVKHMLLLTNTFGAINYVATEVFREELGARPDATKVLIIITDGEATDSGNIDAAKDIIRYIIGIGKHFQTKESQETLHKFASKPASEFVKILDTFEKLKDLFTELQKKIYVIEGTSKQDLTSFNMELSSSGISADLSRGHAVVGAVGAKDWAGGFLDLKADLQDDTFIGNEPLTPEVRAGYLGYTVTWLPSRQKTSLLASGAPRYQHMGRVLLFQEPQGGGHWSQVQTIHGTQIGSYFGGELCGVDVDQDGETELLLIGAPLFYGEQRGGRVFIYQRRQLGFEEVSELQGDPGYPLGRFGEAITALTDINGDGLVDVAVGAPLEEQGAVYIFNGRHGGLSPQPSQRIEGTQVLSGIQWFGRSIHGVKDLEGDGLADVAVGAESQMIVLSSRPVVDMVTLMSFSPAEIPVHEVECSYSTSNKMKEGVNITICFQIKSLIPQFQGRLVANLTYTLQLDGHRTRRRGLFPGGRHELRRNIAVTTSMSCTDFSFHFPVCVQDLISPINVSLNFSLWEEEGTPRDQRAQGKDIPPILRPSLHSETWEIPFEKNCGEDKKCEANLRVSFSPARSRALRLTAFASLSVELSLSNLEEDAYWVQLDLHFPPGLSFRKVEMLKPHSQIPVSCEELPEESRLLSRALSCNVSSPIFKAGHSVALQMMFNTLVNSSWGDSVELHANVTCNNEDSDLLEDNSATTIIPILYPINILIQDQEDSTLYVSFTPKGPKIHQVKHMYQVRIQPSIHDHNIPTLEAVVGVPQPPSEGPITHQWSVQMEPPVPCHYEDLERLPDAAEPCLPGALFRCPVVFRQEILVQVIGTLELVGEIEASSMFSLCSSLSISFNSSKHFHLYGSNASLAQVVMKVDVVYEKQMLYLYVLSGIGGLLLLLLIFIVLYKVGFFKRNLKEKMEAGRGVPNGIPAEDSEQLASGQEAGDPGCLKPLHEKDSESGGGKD
T1 sequence (P05107 23-769 partner): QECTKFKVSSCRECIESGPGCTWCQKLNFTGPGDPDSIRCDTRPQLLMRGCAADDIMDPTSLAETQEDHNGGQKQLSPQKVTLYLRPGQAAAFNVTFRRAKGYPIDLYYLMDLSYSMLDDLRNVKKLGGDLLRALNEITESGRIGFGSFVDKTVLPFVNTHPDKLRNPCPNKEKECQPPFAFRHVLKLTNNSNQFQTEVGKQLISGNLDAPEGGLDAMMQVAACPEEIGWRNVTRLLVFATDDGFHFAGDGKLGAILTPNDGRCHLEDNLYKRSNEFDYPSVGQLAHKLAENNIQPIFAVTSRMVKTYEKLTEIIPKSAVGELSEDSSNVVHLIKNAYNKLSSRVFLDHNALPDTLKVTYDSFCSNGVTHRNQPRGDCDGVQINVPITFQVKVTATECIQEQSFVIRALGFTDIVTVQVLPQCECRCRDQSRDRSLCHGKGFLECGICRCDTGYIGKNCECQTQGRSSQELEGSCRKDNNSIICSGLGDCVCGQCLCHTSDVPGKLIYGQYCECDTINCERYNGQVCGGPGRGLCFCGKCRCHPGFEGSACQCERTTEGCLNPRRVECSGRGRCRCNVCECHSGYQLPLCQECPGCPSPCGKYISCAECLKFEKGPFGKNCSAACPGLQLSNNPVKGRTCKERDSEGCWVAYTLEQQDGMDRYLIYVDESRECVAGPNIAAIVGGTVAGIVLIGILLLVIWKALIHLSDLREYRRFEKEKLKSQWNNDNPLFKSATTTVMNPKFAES
Nature of the assay: V well cell adhesion assay, LFA-1-mediated Jurkat cell binding to ICAM-1 (LFA-1 adhesion). The class given is cell-based. The settings on record: Jurkat cells on ICAM-1/Fc; mean ±SD of ≥3 independent experiments in triplicates or single experiments in triplicates. As to the method:
Cell-Based Assay to Determine the Effect of the Compounds on LFA-1-Mediated Cell Adhesion (LFA-1 Adhesion)
Purpose of the Assay: The V well cell adhesion assay measures the ability of the compounds to interfere with LFA-1-mediated binding to ICAM-1 at cellular level. The assay has been successfully used in the past to identify and characterize small molecules LFA-1 inhibitors.
Experimental Protocol: The adhesion assay was performed in Vbottom 96-well plates as described previously [Weitz-Schmidt 2012]. Briefly, the plates were coated with anti-human IgG mAb diluted in coating buffer (20 mM Tris containing 150 mM NaCl, pH 8) (1 μg/mL) and incubated overnight at 4° C. The plates were flicked out and blocked with blocking buffer (50 mM Tris base, 150 mM NaCl, 1.5% BSA (w/v), pH 7.2) at 37° C. for 90 min. Then human recombinant ICAM-1/Fc (R&D Systems) diluted in coating buffer (0.3 μg/mL) was added to each well. The plates were incubated at 37° C. for 90 min and washed with binding buffer (50 mM Tris base, 150 mM NaCl, 1.5% BSA (w/v), 2 mM MgCl2, 2 mM MnCl2, 5 mM D-glucose monohydrate, pH 7.2-7.4) to remove unbound ligand.
Jurkat cells were cultured under standard conditions as recommended by the American Type Culture collection (ATCC). The cells were fluorescently labelled with BCECF-AM in PBS (1 μg/mL) at 37° C. for 20 min in the dark, centrifuged and washed with PBS. The test compounds were dissolved in DMSO at 10 mM and serially pre-diluted in DMSO (100%) to avoid precipitation, before performing final dilution steps in binding buffer.
The labelled Jurkat cells were re-suspended in binding buffer and test compounds or solvent control were added. The DMSO concentration was kept constant in all samples (1% DMSO as final assay concentration). After 40 min at 37° C. (LFA-1 activation and compound pre-incubation step) the cell suspension (3×10^5 cells/mL in binding buffer) was pipetted up and down and transferred to the ligand-coated microtiter V well plates (30 000 cells/well). The plates were centrifuged for 4 min at room temperature (rt) at 1000 rpm (Centrifuge Eppendorf 5810 R), setting the brake off Non-adherent cells that accumulated in the center of the Vbottom were quantified using a fluorescence reader with the filter sets allowing excitation at 485 nm and quantification of emission at 535 nm. The determination of the half maximal inhibitory concentration (IC50) of the compounds was calculated using the software GraphPad Prism 6.
As for `O=C1[C@@H]2[C@H](C(=O)N1c1cc(Cl)cc(Cl)c1)[C@@H]2c1ccc(Br)cc1` [4′e, rel-(1R,5S,6r)-6-(4-Bromophenyl)-3-(3,5-dichloro-phenyl)-3-azabicyclo[3.1.0]hexane-2,4-dione], the IC50 worked out at 3.33 µM.

With `C[C@]12C(=O)N(c3cc(Cl)cc(Cl)c3)C(=O)[C@H]1[C@@]2(C(=O)N1CCOCC1)c1ccc(C(F)(F)F)cc1` (racemic) [4′l (racemate), rac-(1S,5R,6R)-3-(3,5-Dichlorophenyl)-1-methyl-6-[(morpholin-4-yl)carbonyl]-6-[4-(trifluoromethyl)phenyl]-3-azabicyclo[3.1.0]hexane-2,4-dione], the IC50 was greater than 3 µM.

Turning to `CC12C(=O)N(c3cc(Cl)cc(Cl)c3)C(=O)C1C2(c1ccccc1)c1ccccc1` (single isomer, unassigned) [4b enantiomer B], the IC50 is greater than 10 µM.

Compound `CC12C(=O)N(c3cc(Cl)cc(Cl)c3)C(=O)C1C2(c1ccncc1)c1ccc(C#N)cc1` (single isomer, unassigned) [4z or 4′z diastereomer II (racemate)] came in with an IC50 of 0.071 µM.

Take `CC12C(=O)N(c3cc(Cl)cc(Cl)c3)C(=O)C1C2(c1ccc(C#N)cc1)c1ccc(OC(F)(F)F)cc1` (single isomer, unassigned) [4i/4′i diastereomer I (racemate), rac-4-[(1 S, 5S, 6S)- and rac-4-(1 S, 5S, 6R)-3-(3,5-Dichlorophenyl)-1-methyl-2,4-dioxo-6-[4-(trifluoro-methoxy)-phenyl]-3-azabicyclo[3.1.0]hexan-6-yl]benzonitrile]: the IC50 is 0.562 µM and 0.53 µM.

The compound `C[C@]12C(=O)N(c3cc(Cl)cc(Cl)c3)C(=O)[C@H]1[C@@]2(C(=O)N1CCOCC1)c1ccc(C#N)cc1` (racemic) [4′n (racemate), rac-4-[(1S,5R,6R)-3-(3,5-Dichlorophenyl)-1-methyl-6-[(morpholin-4-yl)carbonyl]-2,4-dioxo-3-azabicyclo[3.1.0]hexan-6-yl]benzonitrile] had an IC50 of 0.636 µM.

`CC12C(=O)N(c3cc(Cl)cc(Cl)c3)C(=O)C1C2(c1ccncc1)c1ccc(C#N)cc1` (single isomer, unassigned) [4z or 4′z diastereomer I (racemate)] returned an IC50 greater than 1 µM.

Compound `C[C@]12C(=O)N(c3cc(Cl)cc(Cl)c3)C(=O)[C@H]1C2(c1ccc(OC(F)(F)F)cc1)c1ccc(OC(F)(F)F)cc1` (racemic) [4q (racemate), rac-(1S,5S)-3-(3,5-Dichlorophenyl)-1-methyl-6,6-bis[4-(trifluoromethoxy)phenyl]-3-azabicyclo[3.1.0]hexane-2,4-dione] had an IC50 of 0.101 µM.

Compound `N#Cc1ccc(C2(c3ccncc3)C3C(=O)N(c4cc(Cl)cc(Cl)c4)C(=O)C32)cc1` (single isomer, unassigned) [4y or 4′y diastereomer I, rel-4-[(1 S, 5R, 6s)- and rel-4-[(1 S, 5R, 6r)-3-(3,5-Dichlorophenyl)-2,4-dioxo-6-(pyridin-4-yl)-3-azabicyclo[3.1.0]hexan-6-yl]benzonitrile] had an IC50 greater than 1 µM.

Compound `COc1ccc(C2(c3ccc(Cl)cc3)C3C(=O)N(c4cc(Cl)cc(Cl)c4)C(=O)C32C)cc1` (single isomer, unassigned) [4s or 4′s diastereomer II (racemate), rac-(1 S, 5S, 6R)- and rac-(1 S, 5S, 6S)-6-(4-Chlorophenyl)-3-(3,5-dichlorophenyl)-6-(4-methoxyphenyl)-1-methyl-3-azabicyclo[3.1.0]hexane-2,4-dione] displayed an IC50 of 0.153 µM.

In the case of `CC12C(=O)N(c3cc(Cl)cc(Cl)c3)C(=O)C1C2(c1ccccc1)c1ccncc1` (single isomer, unassigned) [4 o or 4′o diastereomer I (racemate), rac-(1 S, 5S, 6S)- and rac-(1 S, 5S, 6R)-3-(3,5-Dichlorophenyl)-1-methyl-6-phenyl-6-(pyridin-4-yl)-3-azabicyclo[3.1.0]hexane-2,4-dione], the IC50 was greater than 3 µM.

The compound `O=C1[C@@H]2[C@H](C(=O)N1c1cc(Cl)cc(Cl)c1)C2(c1ccccc1)c1ccccc1` [Compound 4a, 3-(3,5-Dichlorophenyl)-6,6-diphenyl-3-azabicyclo[3.1.0]hexane-2,4-dione] showed an IC50 of 8.48 µM.

Compound `C[C@]12C(=O)N(c3cc(Cl)cc(Cl)c3)C(=O)[C@H]1[C@@]2(C(=O)N1CCOCC1)c1ccc(OC(F)(F)F)cc1` (racemic) [4′m (racemate), rac-(1S,5R,6R)-3-(3,5-Dichlorophenyl)-1-methyl-6-[(morpholin-4-yl)carbonyl]-6-[4-(trifluoromethoxy)phenyl]-3-azabicyclo[3.1.0]hexane-2,4-dione] returned an IC50 of 0.405 µM.

Turning to `C[C@]12C(=O)N(c3cc(Cl)cc(Cl)c3)C(=O)[C@H]1[C@@]2(C(=O)N1CCOCC1)c1ccc(Br)cc1` (racemic) [4′k (racemate), rac-(1S,5R,6R)-6-(4-Bromophenyl)-3-(3,5-dichlorophenyl)-1-methyl-6-[(morpholin-4-yl)carbonyl]-3-azabicyclo[3.1.0]hexane-2,4-dione], the IC50 was 3.47 µM.

In the case of `CC12C(=O)N(c3cc(Cl)cc(Cl)c3)C(=O)C1C2(c1ccccc1)c1ccco1` (single isomer, unassigned) [4t or 4′t Diastereomer I (racemate), rac-(1 S, 5S, 6R)- and rac-(1 S, 5S, 6S)-3-(3,5-Dichlorophenyl)-6-(furan-2-yl)-1-methyl-6-phenyl-3-azabicyclo[3.1.0]hexane-2,4-dione], the IC50 stood at 0.87 µM.

In turn, `N#Cc1ccc(C2(c3ccc(OC(F)(F)F)cc3)C3C(=O)N(c4cc(Cl)cc(Cl)c4)C(=O)C32)cc1` (single isomer, unassigned) [4r or 4′r diastereomer I] had a half-inhibitory concentration (IC50) of 0.963 µM.

The compound `O=C1[C@@H]2[C@H](C(=O)N1c1cc(Cl)cc(Cl)c1)[C@@H]2c1ccccc1` [4′c, rel-(1R,5S,6r)-3-(3,5-Dichlorophenyl)-6-phenyl-3-azabicyclo[3.1.0]hexane-2,4-dione] yielded an IC50 of 1.59 µM.

Take `COc1ccc(C2(c3ccc(Cl)cc3)C3C(=O)N(c4cc(Cl)cc(Cl)c4)C(=O)C32C)cc1` (single isomer, unassigned) [4s or 4′s diastereomer I (racemate), rac-(1 S, 5S, 6R)- and rac-(1 S, 5S, 6S)-6-(4-Chlorophenyl)-3-(3,5-dichlorophenyl)-6-(4-methoxyphenyl)-1-methyl-3-azabicyclo[3.1.0]hexane-2,4-dione]: the IC50 came to 1.83 µM.

Compound `N#Cc1ccc(C2(c3ccc(OC(F)(F)F)cc3)C3C(=O)N(c4cc(Cl)cc(Cl)c4)C(=O)C32)cc1` (single isomer, unassigned) [4r or 4′r diastereomer II] returned an IC50 of 0.132 µM.

`CC12C(=O)N(c3cc(Cl)cc(Cl)c3)C(=O)C1C2(c1ccccc1)c1ccncc1` (single isomer, unassigned) [4 o or 4′o diastereomer II (racemate), rac-(1 S, 5S, 6S)- and rac-(1 S, 5S, 6R)-3-(3,5-Dichlorophenyl)-1-methyl-6-phenyl-6-(pyridin-4-yl)-3-azabicyclo[3.1.0]hexane-2,4-dione]: the IC50 came to 0.458 µM.

`N#Cc1ccc(C2(c3ccncc3)C3C(=O)N(c4cc(Cl)cc(Cl)c4)C(=O)C32)cc1` (single isomer, unassigned) [4y or 4′y diastereomer II, rel-4-[(1 S, 5R, 6s)- and rel-4-[(1 S, 5R, 6r)-3-(3,5-Dichlorophenyl)-2,4-dioxo-6-(pyridin-4-yl)-3-azabicyclo[3.1.0]hexan-6-yl]benzonitrile]: the IC50 is no less than 1 µM.
